{"source": "paper PMC9323955", "about": "“Synthesis and Evaluation of Small Molecule Drug Conjugates Harnessing Thioester-Linked Maytansinoids” (Pharmaceutics, 2022)", "key": {"[1]": {"assay": "PS SPR binding assay (Biacore T200, L1 chip)", "conditions": "DOPC/DOPS (3:1, v/v) liposomes on L1 chip, 25 °C", "experimental": "Phospholipids, 1,2-dioleoyl-sn-glycero-3-phosphocholine (DOPC) and 1,2-dioleoyl-sn-glycero-3-[phosphate-L-serine] (DOPS) were obtained as chloroform solutions from Avanti Polar Lipids (Alabaster, AL, USA). These stock solutions were mixed in the specified proportions. A 0.4 mL aliquot of the lipid solution at a 10 mg/mL concentration was added to a round bottom flask and evaporated under a stream of N2 to provide a thin lipid film. The lipid films were rehydrated in PBS buffer for at least 1 h at room temperature. The resulting suspension was extruded through a 100 nm polycarbonate filter using an Avanti MiniExtruder according to the manufacturer’s instructions. Zeta potential (ZP) and liposome size distribution were recorded by dynamic light scattering (DLS) and microelectrophoresis using a Zetasizer Nano ZS instrument. The binding kinetics between conjugates and liposomes were recorded at 25 °C using a Biacore T200 biosensor equipped with an L1 sensor chip (GE Healthcare, Chicago, IL, USA). The new sensor chip was pretreated with running buffer (5% DMSO in phosphate buffered saline (PBS) at a pH of 7.4) and two consecutive 30 s pulses of 2:3 v/v 50 mM HCl/isopropanol at a flow rate of 30 μL/min. New liposome capture plates were prepared for each binding cycle. In PBS buffer, liposomes are diluted to 0.5–1 mM and captured to saturation in isolated flow cells at 2–5 μL/min (30–150 s). […]"}, "[2]": {"tested_on": "HCC1806 triple-negative breast cancer cells", "assay": "MTS cell viability assay (72 h)", "assay_type": "cell-based, human", "conditions": "HCC1806, conjugate vs DM1/DM4", "experimental": "HCC1806 cells were grown in RPMI 1640 medium, and MTS assays were performed to check cell viability. Cells (2500–3000 cells/well) were grown in flat-bottomed 96-well plates for 24 h, and then serial dilutions of the compound were added, and cells were allowed to incubate for a further 72 h. At the end of the 72-h incubation period, the medium was removed, and 100 μL of a solution including a mixture of MTS and PMS was added. The cells were incubated for 1.5 h at 37 °C in a humidified incubator with 5% CO2 to allow viable cells to convert tetrazolium salts to formazan. Conversion to formazan was measured by absorbance (490 nm) using a BioTek PowerWave-X absorbance microplate meter. The data collected were normalized using a DMSO-treated control (100% viability) and a background control (0% viability) to verify growth inhibition."}, "[3]": {"tested_on": "HCC1806 human triple-negative breast cancer tumors", "assay": "HCC1806 xenograft tumor efficacy", "assay_type": "in vivo, female nude mice", "experimental": "Cancer cells suspended in RPMI 1640 medium (11835-030, Thermo Fisher Scientific, Waltham, MA, USA) were mixed with Matrigel™ (356237, BD Biosciences, Franklin Lakes, NJ, USA) in a 1:1 ratio. Human triple-negative breast cancer HCC1806 (1 × 10^6 cells) cells were inoculated subcutaneously into the left flank of 6-week-old female nude mice (BioLASCO Taiwan, Taipei, Taiwan) using a 1 mL syringe with a 24G needle (AN-2425R, Terumo Medical Corp., Tokyo, Japan). Tumor dimensions were measured twice weekly using electronic calipers (FOW54-200-777, PRO-MAX), and the volume of tumor grown subcutaneously (mm^3) was calculated by the formula Volume = (length × width^2)/2. A combination of 10% DMA/20% Cremophor EL/70% 5% dextrose injection (D5W) was formulated to treat HCC1806 xenograft tumors. Mice with HCC1806 tumors were grouped and administered the indicated dosing regimen of 1 mg/kg for the conjugate and 0.3 mg/kg for the cytotoxic payloads DM1 and DM4 twice-weekly (day 1 and day 4) for 2 weeks when the mean tumor volume was approximately 200–250 mm^3 or 850–900 mm^3 (large tumors). The conjugate dose of 2 mg/kg was administered weekly for the large tumor study. The body weight and tumor volume of mice were measured twice weekly. In addition, a previously reported oncogene-induced, sorafenib-resistant HCC mouse model was used in the current study to examine the antitumor activities of synthesized compounds. Briefly, plasmids including transposase (pCMV(CAT)T7-SB100), human Akt1, and luciferase (pKT2/CLP-AKT-2A-OVA-HBc-HBs-LUC) and the N-Ras V12 mutant (pT/Caggs-NRASV12) were hydrodynamically injected (HDI) and the liver was monitored for the appearance of HCC. HCC mice with a total flux of more than 1 × 10^9 photons/s from IVIS imaging were used as treatment conjugates. The indicated conjugate was administered intravenously at 1 mg/kg 3 times per week over 2 weeks. IVIS imaging was repeatedly performed to follow tumor progression, and tumor tissue from treated HCC mice was collected for histological examination and RNA extraction after administration."}}, "note": "Entries after “also recorded” stand apart in the source; their conditions may differ."}
{"smiles": "COc1cc2cc(c1Cl)N(C)C(=O)CC(OC(=O)C(C)N(C)C(=O)CCSC(=O)c1ccc(CN(CCOCCOCCNC(=O)c3ccc(CN(CCCCOc4cc(CN(Cc5ccccn5)Cc5ccccn5)cc(CN(Cc5ccccn5)Cc5ccccn5)c4)C(=O)C4(c5ccc(Cl)cc5)CCCCC4)cc3)C(=O)C3(c4ccc(Cl)cc4)CCCCC3)cc1)C1(C)OC1C(C)C1CC(O)(NC(=O)O1)C(OC)C=CC=C(C)C2.O=[N+]([O-])[O-].O=[N+]([O-])[O-].O=[N+]([O-])[O-].O=[N+]([O-])[O-].[Zn+2].[Zn+2]", "note": "(stereo not shown) [Zn8_DM1]", "values": [{"measurement": "association with PS-coated liposomes (SPR)", "setting": "[1]", "result": "still allowed recognition"}, {"measurement": "fold attenuation in cytotoxicity relative to parent payload", "setting": "[2]", "result": "2.5–6 fold"}, {"measurement": "anti-HCC1806 tumor growth activity", "setting": "[3]; 1 mg/kg i.v. twice weekly for 2 weeks, tumors 200–250 mm^3", "result": "significant activities; also recorded: shrinkage of HCC1806 tumor growth"}, {"measurement": "effect on large HCC1806 tumors", "setting": "[3]; 2 mg/kg per week for two weeks, tumors ~900 mm^3", "result": "could readily arrest or shrink the growth of larger tumors"}]}
